Literature values, collected in patent US20170332633A1, “DOUBLE SALT IONIC LIQUIDS OF HERBICIDES” (THE BOARD OF TRUSTEES OF THE UNIVERSITY OF ALABAMA, priority 2014, published 2017).

System: rat

| Structure (SMILES) | rat LD50 [mg/kg] |
| --- | --- |
| O=C(O)COc1ccc(Cl)cc1Cl [Example 2.4-D, 2,4-dichlorophenoxyacetic acid] | 639 to 764 |
| COc1c(Cl)ccc(Cl)c1C(=O)O [Dicamba, 3,6-dichloro-2-methoxy benzoic acid] | 1039 |
